Results on 9 compounds are retold here after ChEMBL document CHEMBL1201862, “PubChem BioAssay data set” (2004).

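A five-concentration, 48-hour dose response in 96-well plates underlies each endpoint, interpolated linearly between surrounding concentrations. GI50: concentration for 50% inhibition of growth.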 Active and inactive are the calls of the source. Cut-off read from the data, not from the text of the source: active = GI50 up to about 1.1 µM and inactive = higher. Some results are limits rather than exact numbers.

Assay in all cases: NCI anticancer screen, dose series, 48 h
The test system of assay [1] is COLO 205.
The test system of assay [2] is UACC-62.
Assay [3] concerns OVCAR-8.
For assay [4], the system named is MOLT-4.
For assay [5], the system named is HCT-116.
In assay [6] the test system is SNB-19.
Assay [7] relates to HCC 2998.
The subject of assay [8] is 786-0.
Assay [9] concerns CCRF-CEM.
Assay [10] concerns RPMI-8226.
Assay [11] relates to SF-539.
The subject of assay [12] is OVCAR-3.
The test system of assay [13] is NCI-H460.
Assay [14] deals with IGROV-1.
The subject of assay [15] is HT-29.
For assay [16], the system named is HCT-15.
For assay [17], the system named is CAKI-1.
Assay [18] has as its system NCI-H522.

In the case of `Cc1nc(-n2nc(-c3ccccc3)cc2-c2ccccc2)sc1C(/C=C/c1ccc([N+](=O)[O-])cc1)=N/NC(N)=S`, the GI50 in assay [1] was 33.2 µM (inactive); in assay [2], 54.8 µM (inactive); in [3] it was 39.8 µM (inactive); in assay [4], 13.6 µM (inactive); in [5], 15.8 µM (inactive); in assay [6] it was > 100 µM (inactive). The GI50 in assay [7] was 23.1 µM (inactive); in assay [8] it was 18.2 µM (inactive); in assay [9] it was 22.2 µM (inactive); in assay [10] it was 11.9 µM (inactive); in assay [11] it was 28 µM (inactive); in assay [12], 38.2 µM (inactive). The GI50 in assay [13] was 60.3 µM (inactive); in [14], 35.2 µM (inactive); in assay [15], 23.7 µM (inactive); in [16], 28.4 µM; in assay [17] it was 60.3 µM (inactive).
On to `O=C(CC1(O)C(=O)Nc2ccccc21)c1ccc(O)cc1` (stereo not given), for which the GI50 in [1], in assay [2], in assay [4], in assay [5], in assay [6] and in [7] was > 100 µM (inactive) in each case. Besides, the GI50 in assay [8], in [9], in assay [10], in assay [11], in assay [12] and in [13] was > 100 µM (inactive) throughout. Moreover, the GI50 in assay [14] was > 100 µM (inactive); in assay [15] it was > 100 µM (inactive); in [16], above 100 µM; in [17] it was > 100 µM (inactive).
`O=C(CC(=O)N1N=C(c2ccccc2)C(/N=N/c2ccc(C(=O)O)cc2)C1=O)Nc1ccc(F)cc1` (stereo not given): the GI50 in assay [1] is 43.8 µM (inactive); in [2], 20.5 µM (inactive); in [3], 40.8 µM (inactive); in assay [5], 12.2 µM (inactive); in assay [6] it was 36.4 µM (inactive); in [8], 21.2 µM (inactive). The GI50 is 10.4 µM (inactive) in assay [18]; 27.5 µM (inactive) in assay [10]; 13.4 µM (inactive) in assay [11]; 14.3 µM (inactive) in assay [12]; 28.7 µM (inactive) in [13]; 22.5 µM (inactive) in assay [14]. Further, the GI50 was 48.9 µM (inactive) in [15], 18 µM in assay [16] and 7.55 µM (inactive) in [17].
Turning to `CN1c2ccccc2NC(CC(=O)O)C2CC=CN21` (stereo not given), the GI50 in [1], in assay [2], in [3], in [4], in [6] and in assay [8] was > 100 µM (inactive) throughout. The GI50 in assay [18], in [9], in assay [10], in assay [11], in assay [12] and in assay [13] was > 100 µM (inactive) throughout. For the same compound, the GI50 in assay [14] is > 100 µM (inactive); in [15], > 100 µM (inactive); in [16], above 100 µM; in assay [17] it was > 100 µM (inactive).
Take `O=C(CCCC(=O)Nc1ccc(Cl)cc1Cl)CC(=O)c1ccc2ccccc2c1`: the GI50 in assay [1], in [2], in [3], in assay [4], in assay [5] and in assay [6] was > 100 µM (inactive) each time. Besides, the GI50 in assay [7], in [8], in assay [9], in assay [11], in [12] and in assay [13] was > 100 µM (inactive) each time. Also, the GI50 in assay [14] was > 100 µM (inactive); in assay [15], > 100 µM (inactive); in assay [16] it was above 100 µM; in [17], > 100 µM (inactive).
For the compound `[N-]=[N+]=Nc1ccccc1-[n+]1noc([O-])c1Br`, the GI50 in assay [1], in [2], in assay [3], in [4], in assay [5] and in assay [6] was > 100 µM (inactive) throughout. Further, the GI50 in [8], in assay [18], in assay [9], in assay [10], in assay [11] and in assay [12] was > 100 µM (inactive) throughout. In addition, the GI50 in [13] is > 100 µM (inactive); in assay [14] it was > 100 µM (inactive); in assay [15], > 100 µM (inactive); in [16], above 100 µM; in assay [17] it was > 100 µM (inactive).
On to `C/C=C1/CCC2c3[nH]c4ccccc4c3CCN2C1` (stereo not given), for which the GI50 in assay [2] is 60.8 µM (inactive); in assay [3], > 100 µM (inactive); in assay [4], > 100 µM (inactive); in assay [5] it was 66.5 µM (inactive); in assay [6] it was > 100 µM (inactive); in assay [8] it was > 100 µM (inactive). The GI50 in assay [18], in assay [9], in assay [11], in assay [12], in [13] and in [14] was > 100 µM (inactive) in each case. In addition, the values for the GI50 in assay [15] and in assay [17] were 45.7 µM (inactive) and 37.2 µM (inactive), respectively.
For `COc1cc(C2C3C=CC=C4CC=CC(=C43)C3CCC(=O)N32)cc(OC)c1OC` (stereo not given), the GI50 in assay [2] was 30.8 µM (inactive); in [3], > 100 µM (inactive); in assay [4], > 100 µM (inactive); in [5], 94.8 µM (inactive); in [6] it was > 100 µM (inactive); in assay [8], > 100 µM (inactive). The GI50 in assay [18] was > 100 µM (inactive); in assay [10], > 100 µM (inactive); in [11] it was > 100 µM (inactive); in assay [12] it was > 100 µM (inactive); in assay [13] it was > 100 µM (inactive); in assay [14], 68.4 µM (inactive). The GI50 was 61.5 µM (inactive) in [15] and above 100 µM in assay [16].
With `Nc1ccccc1/C(O)=C1/CCOC1=O`, the GI50 in assay [1], in assay [2], in assay [3], in assay [4], in assay [5] and in [6] was > 100 µM (inactive) each time. Further, the GI50 in assay [8], in assay [18], in assay [9], in [10], in assay [12] and in assay [13] was > 100 µM (inactive) each time. Besides, the GI50 in assay [14], in assay [15] and in assay [17] was > 100 µM (inactive) in each case.
